The values that follow come from patent publication US9932341B2, “Use of pyrazolopyrimidine derivatives for the treatment of PI3K-delta related disorders” (Incyte Corporation, priority 2013, dated 2018).

Usually IC50 stands for the concentration that gives 50% inhibition.

Chain of PI3Kδ (p110δ/p85α) (O00329 whole entry): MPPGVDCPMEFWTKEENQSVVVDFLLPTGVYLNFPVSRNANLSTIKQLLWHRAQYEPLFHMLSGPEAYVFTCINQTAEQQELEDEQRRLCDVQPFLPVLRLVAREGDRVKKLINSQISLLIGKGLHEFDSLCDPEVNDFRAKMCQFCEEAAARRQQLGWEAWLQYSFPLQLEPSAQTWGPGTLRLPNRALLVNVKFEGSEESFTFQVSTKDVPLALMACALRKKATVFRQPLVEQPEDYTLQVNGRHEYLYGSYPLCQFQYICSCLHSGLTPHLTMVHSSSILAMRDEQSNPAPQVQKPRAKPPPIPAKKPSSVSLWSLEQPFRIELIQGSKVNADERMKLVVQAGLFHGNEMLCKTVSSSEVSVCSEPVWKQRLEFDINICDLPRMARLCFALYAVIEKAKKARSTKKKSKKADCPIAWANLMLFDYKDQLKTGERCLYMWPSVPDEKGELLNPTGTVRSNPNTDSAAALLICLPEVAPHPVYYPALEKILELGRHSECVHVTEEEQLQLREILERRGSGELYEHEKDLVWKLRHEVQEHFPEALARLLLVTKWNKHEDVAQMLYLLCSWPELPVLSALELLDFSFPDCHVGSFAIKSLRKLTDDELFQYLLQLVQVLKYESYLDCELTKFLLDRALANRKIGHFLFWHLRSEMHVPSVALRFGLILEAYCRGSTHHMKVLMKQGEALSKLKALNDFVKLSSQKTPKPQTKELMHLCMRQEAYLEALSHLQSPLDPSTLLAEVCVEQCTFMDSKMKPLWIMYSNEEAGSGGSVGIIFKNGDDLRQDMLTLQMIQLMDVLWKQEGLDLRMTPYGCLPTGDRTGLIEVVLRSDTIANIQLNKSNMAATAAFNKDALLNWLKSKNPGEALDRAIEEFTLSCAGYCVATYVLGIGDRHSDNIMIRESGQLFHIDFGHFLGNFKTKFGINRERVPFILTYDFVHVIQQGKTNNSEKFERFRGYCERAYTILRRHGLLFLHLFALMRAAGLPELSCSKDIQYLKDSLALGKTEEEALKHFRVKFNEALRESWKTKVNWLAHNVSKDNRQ
Chain of PI3Kδ (p110δ/p85α) (P27986 whole entry partner): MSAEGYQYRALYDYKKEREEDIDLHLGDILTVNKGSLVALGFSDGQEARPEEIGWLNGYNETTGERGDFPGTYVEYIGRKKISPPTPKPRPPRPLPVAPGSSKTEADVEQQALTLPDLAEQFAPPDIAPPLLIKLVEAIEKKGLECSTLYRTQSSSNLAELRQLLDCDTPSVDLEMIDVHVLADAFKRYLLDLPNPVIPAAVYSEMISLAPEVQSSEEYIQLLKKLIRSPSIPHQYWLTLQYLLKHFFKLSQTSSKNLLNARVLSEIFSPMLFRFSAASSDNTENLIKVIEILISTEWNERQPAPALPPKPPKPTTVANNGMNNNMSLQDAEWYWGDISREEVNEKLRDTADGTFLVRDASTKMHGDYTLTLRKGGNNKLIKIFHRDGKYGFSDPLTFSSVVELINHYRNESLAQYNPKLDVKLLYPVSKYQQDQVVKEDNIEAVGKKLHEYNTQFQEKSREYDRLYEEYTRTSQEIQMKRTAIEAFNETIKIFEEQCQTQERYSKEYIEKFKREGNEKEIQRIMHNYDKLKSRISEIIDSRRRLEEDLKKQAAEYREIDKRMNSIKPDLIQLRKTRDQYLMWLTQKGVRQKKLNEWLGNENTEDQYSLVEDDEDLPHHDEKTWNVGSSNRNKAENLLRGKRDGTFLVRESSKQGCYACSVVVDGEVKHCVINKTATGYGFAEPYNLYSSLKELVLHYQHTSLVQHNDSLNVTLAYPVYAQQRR

This test deals with PI3Kδ (p110δ/p85α) (Homo sapiens (Human), UniProt O00329). Put plainly: PI3Kδ Scintillation Proximity Assay (Example A3). The class given is biochemical. The following applies: 20 μM ATP, 20 μM PIP2, 4 nM PI3Kδ, read-out: PI3Kδ SPA IC50. Here is the method:
[γ-^33P]ATP (10 mCi/mL) was purchased from PerkinElmer (Waltham, Mass.). […] PI3Kδ (p110δ/p85α) was purchased from Millipore (Bedford, Mass.). ATP, MgCl2, DTT, EDTA, MOPS and CHAPS were purchased from Sigma-Aldrich (St. Louis, Mo.). Wheat Germ Agglutinin (WGA) YSi SPA Scintillation Beads was purchased from GE healthcare life sciences (Piscataway, N.J.).
The kinase reaction was conducted in polystyrene 384-well matrix white plate from Thermo Fisher Scientific in a final volume of 25 μL. Inhibitors were first diluted serially in DMSO and added to the plate wells before the addition of other reaction components. The final concentration of DMSO in the assay was 0.5%. The PI3K assays were carried out at room temperature in 20 mM MOPS, pH 6.7, 10 mM MgCl2, 5 mM DTT and CHAPS 0.03%. Reactions were initiated by the addition of ATP, the final reaction mixture consisted of 20 μM PIP2, 20 μM ATP, 0.2 μCi [γ-^33P] ATP, 4 nM PI3Kδ. […] 25 mM EDTA, 400 μM ATP. The final concentration of SPA beads was 1.0 mg/mL. After the plate sealing, plates were shaken overnight at room temperature and centrifuged at 1800 rpm for 10 minutes, the radioactivity of the product was determined by scintillation counting on Topcount (PerkinElmer). IC50 determination was performed by fitting the curve of percent control activity versus the log of the inhibitor concentration using the GraphPad Prism 3.0 software.
A general note: SPA uses beads or plates that emit light when radiolabelled molecules are held near them.
For the compound “1-(1-(5-chloro-2-methoxy-4-methyl-3-(pyrimidin-5-yl)phenyl)ethyl)-3-methyl-1H-pyrazolo[3,4-d]pyrimidin-4-amine [Example 168]”, the IC50 is less than 10 nM. Under `COc1c(C(C)n2nc(C)c3c(N)ncnc32)cc(Cl)c(C)c1C1CN(CC2CC2)C1` (racemic) [Example 4, 1-(1-{5-Chloro-3-[1-(cyclopropylmethyl)azetidin-3-yl]-2-methoxy-4-methylphenyl}ethyl)-3-methyl-1H-pyrazolo[3,4-d]pyrimidin-4-amine bis(trifluoroacetate)] stands less than 10 nM; under `COc1c(C(C)n2nc(C)c3c(N)ncnc32)cc(Cl)c(C)c1C1CN(C)C1` (racemic) [Example 5, 1-{1-[5-chloro-2-methoxy-4-methyl-3-(1-methylazetidin-3-yl)phenyl]ethyl}-3-methyl-1H-pyrazolo[3,4-d]pyrimidin-4-amine], less than 10 nM. The same measure for `CCN1CC(c2c(C)c(Cl)cc(C(C)n3nc(C)c4c(N)ncnc43)c2OC)C1` (racemic) [Example 6, 1-{1-[5-Chloro-3-(1-ethylazetidin-3-yl)-2-methoxy-4-methylphenyl]ethyl}-3-methyl-1H-pyrazolo[3,4-d]pyrimidin-4-amine]: less than 10 nM; for `COc1c(C(C)n2nc(C)c3c(N)ncnc32)cc(Cl)c(C)c1C1CN(CC(C)C)C1` (racemic) [Example 7, 1-{1-[5-Chloro-3-(1-isobutylazetidin-3-yl)-2-methoxy-4-methylphenyl]ethyl}-3-methyl-1H-pyrazolo[3,4-d]pyrimidin-4-amine]: less than 10 nM; for `COCCN1CC(c2c(C)c(Cl)cc(C(C)n3nc(C)c4c(N)ncnc43)c2OC)C1` (racemic) [Example 9, 1-(1-{5-Chloro-2-methoxy-3-[1-(2-methoxyethyl)azetidin-3-yl]-4-methylphenyl}ethyl)-3-methyl-1H-pyrazolo[3,4-d]pyrimidin-4-amine]: less than 10 nM. The same measure for `CNC(=O)N1CC(c2c(C)c(Cl)cc(C(C)n3nc(C)c4c(N)ncnc43)c2OC)C1` (racemic) [Example 10, 3-{3-[1-(4-Amino-3-methyl-1H-pyrazolo[3,4-d]pyrimidin-1-yl)ethyl]-5-chloro-2-methoxy-6-methylphenyl}-N-methylazetidine-1-carboxamide]: less than 10 nM; for `CNC(=O)c1cc(-c2c(C)c(Cl)cc(C(C)n3nc(C)c4c(N)ncnc43)c2OC)ccn1` (racemic) [Example 17, 4-(3-(1-(4-amino-3-methyl-1H-pyrazolo[3,4-c]pyrimidin-1-yl)ethyl)-5-chloro-2-methoxy-6-methylphenyl)-N-methylpicolinamide]: less than 10 nM; for `COc1c(C(C)n2nc(C)c3c(N)ncnc32)cc(Cl)c(C)c1-c1ccnc(C(=O)NCCO)c1` (racemic) [Example 18, 4-{3-[1-(4-Amino-3-methyl-1H-pyrazolo[3,4-d]pyrimidin-1-yl)ethyl]-5-chloro-2-methoxy-6-methylphenyl}-N-(2-hydroxyethyl)pyridine-2-carboxamide]: less than 10 nM.

As for `COc1c(C(C)n2nc(C)c3c(N)ncnc32)cc(Cl)c(C)c1-c1ccnc(C(=O)N(C)CCO)c1` (racemic) [Example 19, 4-{3-[1-(4-amino-3-methyl-1H-pyrazolo[3,4-d]pyrimidin-1-yl)ethyl]-5-chloro-2-methoxy-6-methylphenyl}-N-(2-hydroxyethyl)-N-methylpyridine-2-carboxamide], the IC50 was less than 10 nM. The same measure for `CCOc1c(C(C)n2nc(C)c3c(N)ncnc32)cc(Cl)c(C#N)c1-c1cncc(S(C)(=O)=O)c1` (racemic) [Example 43, 4-[1-(4-amino-3-methyl-1H-pyrazolo[3,4-d]pyrimidin-1-yl)ethyl]-6-chloro-3-ethoxy-2-[5-(methylsulfonyl)pyridin-3-yl]benzonitrile]: less than 10 nM.

Consider `CCOc1c(C(C)n2nc(C)c3c(N)ncnc32)cc(Cl)c(C#N)c1-c1ccc(C(=O)N(C)C)nc1` (racemic) [Example 44, 5-(3-(1-(4-amino-3-methyl-1H-pyrazolo[3,4-d]pyrimidin-1-yl)ethyl)-5-chloro-6-cyano-2-ethoxyphenyl)-N,N-dimethylpicolinamide], for which the IC50 is less than 10 nM.

Turning to `COc1c(C(C)n2nc(C)c3c(N)ncnc32)cc(Cl)c(F)c1C1CN(CCO)C1` (racemic) [Example 71, 2-(3-{3-[1-(4-Amino-3-methyl-1H-pyrazolo[3,4-d]pyrimidin-1-yl)ethyl]-5-chloro-6-fluoro-2-methoxyphenyl}azetidin-1-yl)ethanol], the IC50 is less than 10 nM. Under `CCOc1c(C(C)n2nc(C)c3c(N)ncnc32)cc(Cl)c(C)c1C1CN(CCO)C1` (racemic) [Example 95, 2-(3-{3-[1-(4-Amino-3-methyl-1H-pyrazolo[3,4-d]pyrimidin-1-yl)ethyl]-5-chloro-2-ethoxy-6-methylphenyl}azetidin-1-yl)ethanol bis(trifluoroacetate)] stands less than 10 nM; under `CCOc1c(C(C)n2nc(C)c3c(N)ncnc32)cc(Cl)c(F)c1C1CN(CC(C)(C)O)C1` (racemic) [Example 140, 1-(3-{3-[1-(4-Amino-3-methyl-1H-pyrazolo[3,4-d]pyrimidin-1-yl)ethyl]-5-chloro-2-ethoxy-6-fluorophenyl}azetidin-1-yl)-2-methylpropan-2-ol], less than 10 nM; under `CCOc1c(C(C)n2nc(C)c3c(N)ncnc32)cc(Cl)c(F)c1C1CN(CC(F)(F)F)C1` (racemic) [Example 141, 1-(1-{5-Chloro-2-ethoxy-4-fluoro-3-[1-(2,2,2-trifluoroethyl)azetidin-3-yl]phenyl}ethyl)-3-methyl-1H-pyrazolo[3,4-d]pyrimidin-4-amine], less than 10 nM. The same measure for `COc1c(C(C)n2nc(C)c3c(N)ncnc32)cc(Cl)c(C)c1C1CCN(C)CC1` (racemic) [Example 163, 1-{1-[5-Chloro-2-methoxy-4-methyl-3-(1-methylpiperidin-4-yl)phenyl]ethyl}-3-methyl-1H-pyrazolo[3,4-d]pyrimidin-4-amine]: less than 10 nM. Under `COc1c(C(C)n2nc(C)c3c(N)ncnc32)cc(Cl)c(C)c1C1CCN(CC(C)(C)O)CC1` (racemic) [Example 164, 1-(4-{3-[1-(4-Amino-3-methyl-1H-pyrazolo[3,4-d]pyrimidin-1-yl)ethyl]-5-chloro-2-methoxy-6-methylphenyl}piperidin-1-yl)-2-methylpropan-2-ol] stands less than 10 nM; under `CCOc1c(C(C)n2nc(C)c3c(N)ncnc32)cc(Cl)c(C#N)c1-c1ccc(C(C)(C)O)nc1` (racemic) [Example 316, 4-[1-(4-amino-3-methyl-1H-pyrazolo[3,4-d]pyrimidin-1-yl)ethyl]-6-chloro-3-ethoxy-2-[6-(1-hydroxy-1-methylethyl)pyridin-3-yl]benzonitrile], less than 10 nM. As to `CCOc1c(C(C)n2nc(C)c3c(N)ncnc32)cc(Cl)c(C#N)c1N1CCCC1` (racemic) [Example 318, 4-[1-(4-amino-3-methyl-1H-pyrazolo[3,4-d]pyrimidin-1-yl)ethyl]-6-chloro-3-ethoxy-2-pyrrolidin-1-ylbenzo nitrile], the IC50 is less than 10 nM.

Regarding `CCOc1c(C(C)n2nc(C)c3c(N)ncnc32)cc(Cl)c(C#N)c1N1CC(OC)C1` (racemic) [Example 319, 4-[1-(4-amino-3-methyl-1H-pyrazolo[3,4-d]pyrimidin-1-yl)ethyl]-6-chloro-3-ethoxy-2-(3-methoxyazetidin-1-yl)benzonitrile], the IC50 was less than 10 nM. The same measure for `CCOc1c(C(C)n2nc(C)c3c(N)ncnc32)cc(C)c(C#N)c1C1CN(C(C)C)C1` (racemic) [Example 320, 4-[1-(4-amino-3-methyl-1H-pyrazolo[3,4-d]pyrimidin-1-yl)ethyl]-3-ethoxy-2-(1-isopropylazetidin-3-yl)-6-methylbenzonitrile]: less than 10 nM; for `COc1c(C(C)n2nc(C)c3c(N)ncnc32)cc(Cl)c(C)c1-c1cnn(CCO)c1` (single isomer, unassigned) [20 (1st peak), 2-(4-(3-(1-(4-Amino-3-methyl-1H-pyrazolo[3,4-d]pyrimidin-1-yl)ethyl)-5-chloro-2-methoxy-6-methylphenyl)-1H-pyrazol-1-yl)ethanol]: less than 10 nM; for `CCOc1c(C(C)n2nc(C)c3c(N)ncnc32)cc(C)c(C#N)c1C1CN(C(=O)C(C)(C)O)C1` (single isomer, unassigned) [322 (1st peak), 4-[1-(4-amino-3-methyl-1H-pyrazolo[3,4-d]pyrimidin-1-yl)ethyl]-3-ethoxy-2-[1-(2-hydroxy-2-methylpropanoyl)azetidin-3-yl]-6-methylbenzonitrile]: less than 10 nM. With `COc1c(C(C)n2nc(C)c3c(N)ncnc32)cc(Cl)c(C)c1C1CNC(=O)CO1` (single isomer, unassigned) [324 (2nd peak), 6-{3-[1-(4-Amino-3-methyl-1H-pyrazolo[3,4-d]pyrimidin-1-yl)ethyl]-5-chloro-2-methoxy-6-methylphenyl}morpholin-3-one], the IC50 was less than 10 nM.
